Experimental data taken from BindingDB's records for doi:10.1080/14756360903179484 (University of Karachi, 2010).

Target: T1, Seed linoleate 13S-lipoxygenase-1 (Glycine max, UniProt P08170)
T1 sequence (P08170 whole entry): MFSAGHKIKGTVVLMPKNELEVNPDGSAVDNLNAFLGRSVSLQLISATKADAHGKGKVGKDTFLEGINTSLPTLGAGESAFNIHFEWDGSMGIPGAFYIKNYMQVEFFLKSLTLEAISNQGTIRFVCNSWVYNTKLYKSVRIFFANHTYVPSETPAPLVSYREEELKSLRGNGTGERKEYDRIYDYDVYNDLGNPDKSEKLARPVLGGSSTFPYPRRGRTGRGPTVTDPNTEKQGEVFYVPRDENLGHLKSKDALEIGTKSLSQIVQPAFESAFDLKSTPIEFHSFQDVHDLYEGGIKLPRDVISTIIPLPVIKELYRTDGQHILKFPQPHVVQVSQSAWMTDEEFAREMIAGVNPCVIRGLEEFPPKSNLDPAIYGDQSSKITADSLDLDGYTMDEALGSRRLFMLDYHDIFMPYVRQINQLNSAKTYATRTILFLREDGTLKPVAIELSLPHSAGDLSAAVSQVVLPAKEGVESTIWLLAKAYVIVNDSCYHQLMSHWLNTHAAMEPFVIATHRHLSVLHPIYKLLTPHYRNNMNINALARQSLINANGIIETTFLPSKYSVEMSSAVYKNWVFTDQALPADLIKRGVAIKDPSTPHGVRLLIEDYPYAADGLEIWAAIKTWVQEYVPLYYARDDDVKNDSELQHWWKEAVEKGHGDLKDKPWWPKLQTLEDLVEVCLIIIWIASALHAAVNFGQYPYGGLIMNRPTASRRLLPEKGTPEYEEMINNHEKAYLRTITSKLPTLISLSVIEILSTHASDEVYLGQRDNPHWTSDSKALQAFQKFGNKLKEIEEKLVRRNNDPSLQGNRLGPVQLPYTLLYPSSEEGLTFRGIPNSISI
Assay: Lipoxygenase Inhibition Assay
Details: pH 8; 25 °C
Method: A mixture of test compound (10 μL; 1 mM) in MeOH, type-1B lipoxygenase (EC 1.13.11.12; from soyabean) (20 μL; 70 units) in 0.1 M aqueous phosphate buffer (pH 8.0) in a total volume of 160 μL was incubated for 10 min at 25°C. Then the reaction was initiated by the addition of a solution of linoleic acid as substrate (10 μL; 20 μM), resulting in the formation of (9Z,11E,13S)-13-hydroperoxyoctadeca-9,11-dienoate. The change in UV absorbance at 234 nm was followed over a period of 6 min. All reactions were performed in triplicate, and analyzed with a 96-well plate reader (SpectraMax Plus 384; Molecular Devices).

Q: With `COc1cc(-c2coc3cc(O)c(O)cc3c2=O)ccc1O` [Conferin (1)] as the compound, how does the IC50 read?
A: The IC50 was 55.2 µM.

Q: How did the IC50 turn out when `COc1ccc(-c2coc3cc(O)cc(O)c3c2=O)cc1` [5,7-dihydroxy-3-(4-methoxyphenyl)-4H-chromen-4-one] was run?
A: The IC50 was 100 µM.
